Measurements: patent publication US20100234592A1, “Corrosion Inhibitors Having Increased Biodegradability and Reduced Toxicity” (priority 2006, published 2010)
Like-named read-outs stand apart in the source and are kept apart here.

What was measured:
[1] = Shell wheel test (corrosion inhibition); details: carbon steel coupons in saltwater/petroleum mixture, pH 3.5, 70° C., 24 hours; 50 ppm of a 40% solution of the inhibitor; from mass decrease based on a blank value
Method: The inventive compounds were tested as corrosion inhibitors in the Shell wheel test. Coupons of carbon steel (DIN 1.1203 with surface area 15 cm^2) were immersed into a saltwater/petroleum mixture (9:1.5% NaCl solution adjusted to pH 3.5 with acetic acid) and exposed to this medium at a peripheral speed of 40 rpm at 70° C. for 24 hours. The dosage of the inhibitor was 50 ppm of a 40% solution of the inhibitor. The protection values were calculated from the mass decrease of the coupons based on a blank value.

[2] = LPR test (test conditions analogous to ASTM D 2776); parameters: concentration or dose not given beside the values
Method: The products were also tested in the LPR test (test conditions analogous to ASTM D 2776).

Shaking foam test = assay type: physicochemical; details: 50 ml of a 3% aqueous solution in demineralized water shaken 20 times within 10 seconds; graded weakly foaming, foaming or highly foaming
[3] = Biodegradability (OECD 306)
Skeletonema costatum = assay: Toxicity (EC50 Skeletonema costatum); assay type: cell-based

Compound	Ø % protection [1] [%]	Protection after 10 min [2] [%]	Protection after 30 min [2] [%]	Protection after 60 min [2] [%]	Foaming behavior (Shaking foam test)	Biodegradability [3] [%]	Toxicity EC50 (Skeletonema costatum) [µg/mL]	Biodegradability ([3]; OECD 306) [%]	EC50 (Skeletonema costatum) [µg/mL]
CCCCCCCC/C=C\CCCCCCCCNC(CCSC)C(=O)O.OCCN(CCO)CCO (racemic) [compound from example 8, N-Oleyl-DL-methionine triethanolammonium salt]	85	80.1	94.5	98.6	weakly foaming	85.4	13.6		
N-Dodecyl-DL-methionine cyclohexylammonium salt [compound from example 3]	78	76.4	88.4	97.2	weakly foaming		22.3	84.0	
N-Dodecyl-DL-methionine dibutylammonium salt [compound from example 4]	80	74.8	87.3	96.8	weakly foaming				
CCCCCCCCNC(CCSC)C(=O)O.OCCN(CCO)CCO (racemic) [compound from example 2, N-Octyl-DL-methionine triethanolammonium salt]	72	62.9	76.1	90.0	weakly foaming				
N-Oleyl-DL-methionine 2-(2-hydroxyethoxy)ethylammonium salt [compound from example 7]	82	78.5	92.9	98.5	weakly foaming				
CCCCCCCCCCCC(=O)NCC(=O)[O-].[Na+] [comparative 2, N-lauroylglycine sodium salt, reference compound]	45	15.4	35.2	42.9	highly foaming			44.5	8.5
CCCCCCCCNC(CCSC)C(=O)O.NCCO (racemic) [compound from example 1, N-Octyl-DL-methionine monoethanolammonium salt]	63	60.5	75.3	88.4	weakly foaming	92.4	44.5		
N-Cocoyl-DL-methionine morpholinium salt [compound from example 5]	85	90.3	94.2	98.9					
CCCCCCCCCCCCCC(=O)N[C@@H](CC(=O)[O-])C(=O)[O-].[Na+].[Na+] [comparative 3, N-myristoyl-L-aspartic acid disodium salt, reference compound]	38	20.0	42.6	47.1	highly foaming			50.3	9.5
N-Cocoyl-DL-methionine N,N-diethyl-(2-hydroxyethyl)-ammonium salt [compound from example 6]	83	92.0	96.7	99.0			15.4		
